Measurements taken from patent publication US20060276464A1, “Diarylsulfone sulfonamides and use thereof” (Wyeth, priority 2005, published 2006).
Read-outs that look alike come from different tables or passages of the source.

How the values were obtained:
SFRP-1 [1] = molecular target: T1, SFRP-1 (Homo sapiens, UniProt Q8N474); test: Cell-based assay for in vitro measurement of SFRP-1/SARP2 antagonist activity (U2OS cells co-transfected with 16x TCF-tk-Luciferase reporter, Wnt and hSFRP-1); conditions: for fold induction at 10 µM / fold induction at 15 µM: U2OS; for fold induction at 10 µM: read-out: Fold Induction with SFRP-1, U2OS cells, single dose 10 μM, luciferase reporter, fold induction over SFRP-1 control;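 on all read-outs here: U2OS cells co-transfected with a TCF-tk luciferase reporter, a Wnt vector, hSFRP-1 or empty vector and CMV-βgal, luciferase luminescence read in cell lysates alongside βgal activity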
T1 sequence (Q8N474 32-314): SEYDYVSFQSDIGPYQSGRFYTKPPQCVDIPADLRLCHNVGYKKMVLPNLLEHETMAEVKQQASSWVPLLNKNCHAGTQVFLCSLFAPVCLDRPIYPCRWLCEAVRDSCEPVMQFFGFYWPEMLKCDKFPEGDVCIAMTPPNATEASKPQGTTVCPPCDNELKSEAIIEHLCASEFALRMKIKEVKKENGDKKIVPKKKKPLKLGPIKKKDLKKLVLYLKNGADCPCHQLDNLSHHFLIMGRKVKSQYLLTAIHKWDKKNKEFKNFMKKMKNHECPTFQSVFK

SFRP-1 [2] = molecular target: T1, SFRP-1; test: Fluorescence polarization binding assay (competitive displacement of a probe compound from SFRP-1); conditions: fluorescence anisotropy, 45 nM SFRP-1, 20 nM probe;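 further: test compound competes with a fluorescent probe held by SFRP-1, seen as a drop in probe anisotropy after incubation in darkness, with anisotropy as function of rising compound dose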
[3] = read-out: Fold Induction with SFRP-1, Conc 15 μM, single dose, luciferase reporter, fold induction over SFRP-1 control, cells with SFRP-1
[4] = read-out: Fold Induction without SFRP-1, Conc 15 μM, single dose, luciferase reporter, cells without SFRP-1 (specificity control)
[5] = read-out: Fold Induction with SFRP-1, Conc 15 μM, with SFRP-1, fold induction over SFRP-1 control, single dose
[6] = read-out: Fold Induction without SFRP-1, Conc 15 μM, without SFRP-1, single dose

Compound	melting point	fold induction at 10 µM (SFRP-1 [1])	IC50 (SFRP-1 [2])	EC50 (SFRP-1 [1])	fold induction at 15 µM (SFRP-1 [1]; [3])	fold induction at 15 µM (SFRP-1 [1]; [4])	fold induction at 15 µM (SFRP-1 [1]; [5])	fold induction at 15 µM (SFRP-1 [1]; [6])
COc1ccc(S(=O)(=O)c2ccccc2)cc1S(=O)(=O)NC1CCOCC1 [Example 689, 2-Methoxy-5-(phenylsulfonyl)-N-(tetrahydro-2H-pyran-4-yl)benzenesulfonamide]	176 to 178 °C	1.2						
CC(C)c1ccc(S(=O)(=O)c2ccccc2)cc1S(=O)(=O)NC1CCN(C(=O)c2cccc3ccccc23)CC1 [Example 808, 2-Isopropyl-N-[1-(1-naphthoyl)piperidin-4-yl]-5-(phenylsulfonyl)benzenesulfonamide]	163 to 165 °C	3.7	500 nM	945 nM				
CC(C)c1cc(C(C)C)c(S(=O)(=O)c2ccc(F)cc2)cc1S(=O)(=O)NC1CCCC1 [Example 621, N-Cyclopentyl-5-[(4-fluorophenyl)sulfonyl]-2,4-diisopropylbenzenesulfonamide]	202 to 205 °C				1.2	1		
CC(C)c1cc(C(C)C)c(S(=O)(=O)c2ccc(F)cc2)cc1S(=O)(=O)NCCc1ccccc1 [Example 619, 5-[(4-Fluorophenyl)sulfonyl]-2,4-diisopropyl-N-(2-phenylethyl)benzenesulfonamide]	154 to 156 °C				1.3	1.1		
COc1ccc(S(=O)(=O)c2ccccc2)cc1S(=O)(=O)NCCc1cccnc1 [Example 678, 2-Methoxy-5-(phenylsulfonyl)-N-(2-pyridin-3-ylethyl)benzenesulfonamide]	181 to 183 °C	1.6						
CC(C)c1cc(C(C)C)c(S(=O)(=O)c2ccc(F)cc2)cc1S(=O)(=O)NC1Cc2ccccc2C1 [Example 634, N-(2,3-Dihydro-1H-inden-2-yl)-5-[(4-fluorophenyl)sulfonyl]-2,4-diisopropylbenzenesulfonamide]	202 to 204 °C				3	1		
CC(C)c1cc(C(C)C)c(S(=O)(=O)c2ccccc2)cc1S(=O)(=O)NC1Cc2ccccc2C1 [Example 618, N-(2,3-Dihydro-1H-inden-2-yl)-2,4-diisopropyl-5-(phenylsulfonyl)benzenesulfonamide]	215 to 217 °C				2.8	1.1		
N#CCCNS(=O)(=O)c1cc(S(=O)(=O)c2cccc(Cl)c2)ccc1C(F)(F)F [Example 752, 5-[(3-chlorophenyl)sulfonyl]-N-(2-cyanoethyl)-2-(trifluoromethyl)benzenesulfonamide]		3.8	400 nM	1090 nM				
CC(C)c1ccc(S(=O)(=O)c2ccc(N(C)CCC#N)cc2)cc1S(=O)(=O)NCC1CCOCC1 [Example 581, 5-({4-[(2-cyanoethyl)(methyl)amino]phenyl}sulfonyl)-2-isopropyl-N-(tetrahydro-2H-pyran-4-ylmethyl)benzenesulfonamide]			1000 nM		2.2	1.3		
O=C(O)CCNS(=O)(=O)c1cc(S(=O)(=O)c2ccccc2)ccc1C(F)(F)F [Example 889, N-{[5-(phenylsulfonyl)-2-(trifluoromethyl)phenyl]sulfonyl}-[…]-alanine]		1.3	4000 nM					
O=S(=O)(NCCc1cccnc1)c1cc(S(=O)(=O)c2ccccc2)ccc1OC(F)(F)F [Example 660, 5-(phenylsulfonyl)-N-(2-pyridin-3-ylethyl)-2-(trifluoromethoxy)benzenesulfonamide]		4.9	2400 nM	3720 nM				
CC(C)c1ccc(S(=O)(=O)c2ccc(NCCC#N)cc2)cc1S(=O)(=O)NCCC1CCOCC1 [Example 537, 5-({4-[(2-cyanoethyl)amino]phenyl}sulfonyl)-2-isopropyl-N-[2-(tetrahydro-2H-pyran-4-yl)ethyl]benzenesulfonamide]			700 nM		2.9	1.1		
O=S(=O)(NCCc1ccc(O)cc1)c1cc(S(=O)(=O)c2ccccc2)ccc1C(F)(F)F [Example 943, N-[2-(4-hydroxyphenyl)ethyl]-5-(phenylsulfonyl)-2-(trifluoromethyl)benzenesulfonamide]		3.4	400 nM	569 nM				
O=C(NCCNS(=O)(=O)c1cc(S(=O)(=O)c2ccccc2)ccc1C(F)(F)F)c1ccncc1 [Example 783, N-[2-({[5-(Phenylsulfonyl)-2-(trifluoromethyl)phenyl]sulfonyl}amino)ethyl]isonicotinamide]		3.2	700 nM					
CC(C)c1ccc(S(=O)(=O)c2ccc(F)cc2)cc1S(=O)(=O)NC1CCN(C(=O)N2CCOCC2)CC1 [Example 572, 5-[(4-fluorophenyl)sulfonyl]-2-isopropyl-N-[1-(morpholin-4-ylcarbonyl)piperidin-4-yl]benzenesulfonamide]			500 nM		1.7	1		
CC(C)c1ccc(S(=O)(=O)c2ccc(F)cc2)cc1S(=O)(=O)NC1CCN(S(=O)(=O)c2cccc3c(N(C)C)cccc23)CC1 [Example 518, N-(1-{[5-(dimethylamino)-1-naphthyl]sulfonyl}piperidin-4-yl)-5-[(4-fluorophenyl)sulfonyl]-2-isopropylbenzenesulfonamide]			500 nM		3	1.2		
O=S(=O)(NC1c2ccccc2CC1O)c1cc(S(=O)(=O)c2ccccc2)ccc1C(F)(F)F (stereo not shown) [Example 823, N-(2-hydroxy-2,3-dihydro-1H-inden-1-yl)-5-(phenylsulfonyl)-2-(trifluoromethyl)benzenesulfonamide]		2.6	800 nM	3000 nM				
COC(=O)c1cccc(S(=O)(=O)N2CCC(NS(=O)(=O)c3cc(S(=O)(=O)c4ccccc4)ccc3C(F)(F)F)CC2)c1 [Example 938, methyl 3-{[4-({[5-(phenylsulfonyl)-2-(trifluoromethyl)phenyl]sulfonyl}amino)piperidin-1-yl]sulfonyl}benzoate]		4.4	900 nM	850 nM				
CNc1ccc(S(=O)(=O)c2ccc(C(C)C)c(S(=O)(=O)NC3CCNCC3)c2)cc1 [Example 568, 2-isopropyl-5-{[4-(methylamino)phenyl]sulfonyl}-N-piperidin-4-ylbenzenesulfonamide]			500 nM		3.8	1.1		
CCCCOC(=O)N(C)CCNS(=O)(=O)c1cc(S(=O)(=O)c2ccccc2)ccc1C(F)(F)F [Example 865, butyl methyl[2-({[5-(phenylsulfonyl)-2-(trifluoromethyl)phenyl]sulfonyl}amino)ethyl]carbamate]		2.9	300 nM	2140 nM				
CC(C)c1ccc(S(=O)(=O)c2ccc(F)cc2)cc1S(=O)(=O)NC1CCN(Cc2ccccc2)CC1 [Example 525, N-(1-benzylpiperidin-4-yl)-5-[(4-fluorophenyl)sulfonyl]-2-isopropylbenzenesulfonamide]			1000 nM		2.1	1.1		
Cc1ccc(S(=O)(=O)c2ccccc2)cc1S(=O)(=O)NC1CCN(C(=O)OC(C)(C)C)CC1 [Example 446, tert-butyl 4-({[2-methyl-5-(phenylsulfonyl)phenyl]sulfonyl}amino)piperidine-1-carboxylate]			2000 nM				2.3	1.1
CC(C)c1ccc(S(=O)(=O)c2ccc(F)cc2)cc1S(=O)(=O)NCC(O)c1ccccn1 (stereo not shown) [Example 727, 5-[(4-fluorophenyl)sulfonyl]-N-(2-hydroxy-2-pyridin-2-ylethyl)-2-isopropylbenzenesulfonamide]		3.2	10000 nM					
CC(C)c1cc(C(C)C)c(S(=O)(=O)c2ccc(F)cc2)cc1S(=O)(=O)NCCc1ccncc1 [Example 633, 5-[(4-Fluorophenyl)sulfonyl]-2,4-diisopropyl-N-(2-pyridin-4-ylethyl)benzenesulfonamide]	210 to 211 °C				1.5	1		
CC(C)c1ccc(S(=O)(=O)c2ccc(F)cc2)cc1S(=O)(=O)NCCc1ccccn1 [Example 320, 5-[(4-fluorophenyl)sulfonyl]-2-isopropyl-N-(2-pyridin-2-ylethyl)benzenesulfonamide]			900 nM				2.8	1.2
O=C(O)c1ccc(S(=O)(=O)N2CCC[C@H]2C(=O)N2CCC(NS(=O)(=O)c3cc(S(=O)(=O)c4ccccc4)ccc3C(F)(F)F)CC2)cc1 [Example 1080, 4-[((2S)-2-{[4-({[5-(phenylsulfonyl)-2-(trifluoromethyl)phenyl]sulfonyl}amino)piperidin-1-yl]carbonyl}pyrrolidin-1-yl)sulfonyl]benzoic acid]			30 nM	386 nM				
